Data as given in patent US20250009748A1 (NAVIRE PHARMA, INC., priority 2021, published 2025).
“Also recorded” adds a separate entry of the source.

Tests used:
[1] = Tolerability (body weight, mouse loss) in NCI-H358 xenograft study (Example 1); conditions: for Mean body weight change: Day 29, n = 10; for Mouse loss and observations: n = 8 mice/group
Procedure: Dosing started ˜2 weeks post the subcutaneous implantation of the tumor cells. […] Tumor volume was measured twice a week. The body weight and tumor volume were captured in the StudyDirector software version 3.1.399.19 (StudyLog).
Data were analyzed using Microsoft Excel and GraphPad Prism 8.0. Day 0 was the day before treatment started.
BWi and BW0 are the body weight of an individual mouse on measurement day I and on day 0, respectively.

[2] = tested on: NCI-H358 subcutaneous cell line-derived tumors (NSCLC, KRAS G12C); assay: NCI-H358 subcutaneous cell line-derived xenograft, formula (10b) and sotorasib (Example 2); type: in vivo, NOD/SCID mice; conditions: Day 29, n = 10; for Mean Tumor REG: Formula (10b) 100 mg/kg QD PO
Text: (§1) Tumor Cell Line Culture. […] Passage 9 NCI-H358 cells were thawed and expanded, and passage 13 cells were harvested for inoculations. […] Passage 6 NCI-H2122 cells were thawed and expanded, and passage 14 cells were harvested for inoculations.
(§2) Animal Inoculations and Randomization. All experiments were reviewed and approved by the Crown Bioscience, Inc., Institutional Animal Care and Use Committee (IACUC) prior to execution and performed in accordance with the regulations of the Association for Assessment and Accreditation of Laboratory Animal Care (AAALAC). […] Mice were randomized into four groups (10 mice/group) by tumor volume (size mm^3) 13 days post cell inoculation when the mean tumor volume was 160 mm^3. […] Mice were randomized into four groups (10 mice/group) by tumor volume (size mm^3) 9 days post cell inoculation when the mean tumor volume was 180 mm^3.
(§3) Tumor and Body Weight Measurements. […] Dosing as well as tumor and body weight measurements were conducted in a Laminar flow cabinet.
(§4) Statistical analyses. Statistical analyses were performed with GraphPad Prism software (version 9). For statistical analyses comparing the vehicle group to all other groups, two-way repeated-measures analysis of variance (ANOVA) followed by post hoc Tukey's multiple comparisons test of the means was applied over the indicated number of days. For statistical analyses comparing the monotherapy and combination groups, two-way repeated-measures ANOVA was performed between each monotherapy group mean and combination group mean over the number of indicated days. A p value of less than 0.05 was considered statistically significant.
Female NOD/SCID mice were implanted subcutaneously with NSCLC NCI-H358 tumor cells. […] Mouse tumor volumes were measured twice weekly until day 34 and results are shown through day 29.

[3] = tested on: NCI-H2122 subcutaneous cell line-derived tumors (NSCLC, KRAS G12C, KEAP1, STK11); assay: NCI-H2122 subcutaneous cell line-derived xenograft, formula (10b) and sotorasib (Example 2); type: in vivo, BALB/c nude mice; conditions: Day 21, n = 10; for TGI: Formula (10b) 100 mg/kg QD PO
Text: as §1, §2, §3, §4

[4] = tested on: NCI-H358 subcutaneous tumors (human NSCLC, KRAS G12C); assay: NCI-H358 subcutaneous xenograft efficacy study, formula (10b) and Compound A (Example 1); type: in vivo, NOD/SCID mice; conditions: for Day 21 TGI: n = 8
Text: Cell lines. The NCI-H358 cell line was purchased from ATCC. It is a human NSCLC cell line, harboring heterozygous mutation of KRAS G12C.
Test animals. Female NOD/SCID mice (Beijing Anikeeper Biotech Co., Ltd) were utilized in this experiment. Animals were 6˜8 weeks of age at the time of xenograft implantation. The protocol and any amendment(s) or procedures involving the care and use of animals in this study was reviewed and approved by the Institutional Animal Care and Use Committee (IACUC) of Crown Bioscience Ltd. prior to execution. During the study, the care and use of animals was conducted in accordance with the regulations of the Association for Assessment and Accreditation of Laboratory Animal Care (AAALAC).
In vivo modeling, treatment and data analysis.
When the average tumor volume reached 250 mm^3, mice were randomized into groups of 8 based on both tumor volume and body weight.
Tumor volume was measured twice a week.
Day 0 was the day before treatment started.
Ti and Ci are the mean tumor volumes of the treatment and vehicle groups on the measurement day, respectively; C0 is the mean tumor volume of the vehicle group on day 0.
Tumor volume was monitored bi-weekly by caliper and body weights were recorded. Data presented in FIGS. 1A-1E represent mean±SEM, and N=8 mice/group for FIGS. 1B-1E and N=10 mice/group for FIG. 1A.

[5] = LC-MS/MS plasma concentration of formula (10b) and Compound A at end of efficacy study (Example 1); type: in vivo, NOD/SCID mice; conditions: for concentration at 8 h / concentration at 2 h: NOD/SCID, mouse, plasma, oral; for concentration at 2 h: Compound A Plasma concentration
Text: Blood collection for pharmacokinetic analysis. Blood from live animals for pharmacokinetic (PK) analyses was obtained via the retro-orbital sinus. The mouse was grasped firmly behind the ears and rotated slightly to one side so that a disposable, sterile microcapillary tube could be inserted behind the eyeball and gently rotated to break the sinus cavity. Blood flowed through the capillary tube, directly into a K2 EDTA tube (Jiangsu KangJian Medical Apparatus Corporation #044022) to a volume of 100 μL. Blood in the tube was inverted several times to distribute the EDTA evenly. To separate plasma, tubes were centrifuged in a bench top centrifuge (Eppendorf, Model 5424R) for 5 minutes at 8000 rpm without braking. The supernatant (plasma) was carefully transferred to a microcentrifuge tube and placed onto dry ice prior to storage at −80° C.
For plasma sample analysis, 20 μL of each sample was precipitated with 200 μL of acetonitrile containing Glipizide (100 ng/mL) as an internal standard. This suspension was vortexed for 1 min and centrifuged at 4,000 rpm for 10 min, after which 80 μL of the extract was aliquoted for LC-MS/MS analysis. LC-MS/MS analysis was conducted on a Shimadzu Nexera UHPLC system coupled with a Sciex 6500 TQ-S triple quadrupole mass spectrometer (MS/MS) operated at the positive mode (ESI+). […] The injection volume was 2 μL. The LC mobile phase A was 0.025% formic acid-water containing 1 mM ammonium acetate and B was 100% methanol containing 5 mM ammonium acetate. The gradient (% B) was 2% (0-0.4 min), 2-65% ([…]), 65-90% (0.7 to 1.3 min), 90% (1.3-1.9 min), 90-2% (1.9 to 1.91 min), 2% (1.91-2.5 min). The flow rate was 0.6 mL/min. The column temperature was 60° C.

[6] = Tolerability / body weight in NCI-H2122 study (Example 2)
Procedure: Body weights (BW) were also recorded twice weekly. […] Mean body weight changes (±SEM) were recorded for group.
Experimental Endpoints. Animal health was monitored at least twice weekly through behavioral observations and weight checks. After tumor inoculation, the animals were checked daily for morbidity and mortality. During routine monitoring, the animals were checked for any effects of tumor growth and treatments on behavior such as mobility, food and water consumption, body weight gain/loss, eye/hair matting, and any other abnormalities.
Study endpoint was defined when animals reached one of the following criteria for euthanasia: ≥20% body weight loss at any time versus day 1, ≥15% body weight loss for 72 hours versus day 1, individual tumor volume of ≥3000 mm^3, or all mice in each group were euthanized when the mean tumor volume reached ≥2000 mm^3.

With `Cc1c(N2CCC3(CC2)CO[C@@H](C)[C@H]3N)nc(C)n(-c2cccc(Cl)c2Cl)c1=O` (atropisomer, axis not shown; (Ra)) [Formula (10b), 6-((3S,4S)-4-amino-3-methyl-2-oxa-8-azaspiro[4.5]decan-8-yl)-3-(Ra)-(2,3-dichlorophenyl)-2,5-dimethylpyrimidin-4(3H)-one] the “Mean body weight change” value ([1]; Formula (10b) 100 mg/kg QD) was −6.5%, the “Mouse loss and observations” value ([1]; Formula (10b) 50 mg/kg QD, each event = one mouse, BWL = body weight loss) was “Day 3 (BWL); also recorded: Day 12 (BWL); also recorded: Day 19 (BWL)” and the “Mouse loss and observations” value ([1]; Formula (10b) 100 mg/kg QD, each event = one mouse) was “Day 18 (Found dead); also recorded: Day 21 (Found dead)”. For the same molecule, the “Mean Tumor Volume (±SEM)” value ([2]; Formula (10b) 100 mg/kg QD PO day 1-28) was 138 (±17) mm^3, the “Mean Tumor REG” value [2] was 14% and the “Mean Tumor REG” value ([2]; listed as formula (10b)) was 14%. For the same molecule, the “Mean Tumor Volume (±SEM)” value ([3]; Formula (10b) 100 mg/kg QD PO day 1-21) was 590 (±48) mm^3, the TGI [3] was 58% and the TGI ([3]; listed as formula (10b)) was 58%. For the same molecule, the Mean tumor regression ([4]; Day 29, Formula (10b) 100 mg/kg QD PO, n = 10, FIG. 1A) was 14%, the Number of regressions ([4]; Day 29, Formula (10b) 100 mg/kg QD, n = 10) was 8/10 and the “Day 21 TGI” value ([4]; Formula (10b) 50 mg/kg QD PO) was 46%. For the same molecule, the “Day 21 TGI” value ([4]; Formula (10b) 50 mg/kg QD PO, listed as formula (10b)) was 46%, the “Day 21 TGI” value ([4]; Formula (10b) 100 mg/kg QD PO) was 89% and the “Day 21 TGI” value ([4]; Formula (10b) 100 mg/kg QD PO, listed as formula (10b)) was 89%. The “effect on growth of NCI-H358 tumors (in words)” value ([4]; formula (10b) monotherapy at 100 mg/kg QD) was “approximately tumor stasis”, the “Formula (10b) Plasma concentration” value ([5]; 8 hours after final dose of formula (10b), Formula (10b) 50 mg/kg QD, mean ± SD, N = 4) was 4.44 ± 1.05 µM and the “Formula (10b) Plasma concentration” value ([5]; 8 hours after final dose of formula (10b), Formula (10b) 100 mg/kg QD, mean ± SD, N = 4) was 7.54 ± 1.60 µM. For the same molecule, the “Compound A Plasma concentration” value ([5]; Formula (10b) 50 mg/kg QD alone, BQL = below quantitation limit (3 nM)) was “BQL”, the “Compound A Plasma concentration” value ([5]; Formula (10b) 100 mg/kg QD alone, BQL = below quantitation limit (3 nM)) was “BQL” and the concentration at 8 h ([5]; 50 mg/kg, 8 hours after final dose of formula (10b), Formula (10b) 50 mg/kg QD, mean ± SD, N = 4) was 4.4 µM. The concentration at 8 h ([5]; 100 mg/kg, 8 hours after final dose of formula (10b), Formula (10b) 100 mg/kg QD, mean ± SD, N = 4) was 7.5 µM and the body weight loss ([6]; formula (10b) 100 mg/kg QD monotherapy, several mice, group placed on diet gel day 11-21) was “over 10%”.

In the case of `C=CC(=O)N1CCN(c2nc(=O)n(-c3c(C)ccnc3C(C)C)c3nc(-c4c(O)cccc4F)c(F)cc23)[C@@H](C)C1` [Compound A, 6-fluoro-7-(2-fluoro-6-hydroxyphenyl)-1-[4-methyl-2-(propan-2-yl)pyridin-3-yl]-4-[(2S)-2-methyl-4-(prop-2-enoyl)piperazin-1-yl]pyrido[2,3-d]pyrimidin-2(1H)-one, reference compound], the “Mouse loss and observations” value ([1]; Compound A 30 mg/kg QD) was “None”, the “Mouse loss and observations” value ([1]; Compound A 100 mg/kg QD, dosing day of removal) was “None” and the “Mean body weight change” value ([1]; Compound A 10 mg/kg QD) was −0.3%. The “Compound A Plasma concentration” value ([5]; 2 hours after final dose of Compound A, Compound A 30 mg/kg QD, mean ± SD, N = 4, 30 mg/kg) was 2.02 ± 0.31 µM, the “Compound A Plasma concentration” value ([5]; 2 hours after final dose of Compound A, Compound A 100 mg/kg QD, mean ± SD, N = 4, 100 mg/kg) was 8.77 ± 7.25 µM and the “Formula (10b) Plasma concentration” value ([5]; Compound A 30 mg/kg QD alone, BQL = below quantitation limit (3 nM)) was “BQL”. The “Formula (10b) Plasma concentration” value ([5]; Compound A 100 mg/kg QD alone, BQL = below quantitation limit (3 nM)) was “BQL”, the concentration at 2 h ([5]; 30 mg/kg, 2 hours after final dose of Compound A, Compound A 30 mg/kg QD, mean ± SD, N = 4) was 2 µM and the concentration at 2 h ([5]; 100 mg/kg, 2 hours after final dose of Compound A, Compound A 100 mg/kg QD, mean ± SD, N = 4) was 8.8 µM.

For `C=CC(=O)N1CCN(c2nc(=O)n(-c3c(C)ccnc3C(C)C)c3nc(-c4c(O)cccc4F)c(F)cc23)[C@@H](C)C1` [Sotorasib, reference compound], the “tolerability / impact on body weights” value ([6]; sotorasib 100 mg/kg QD monotherapy, FIG. 3B) was “well tolerated”.
